Entries after “also recorded” stand apart in the source; their conditions may differ.
Tests used:
neuropathic rats [1] = test: EEG/EMG recording of wakefulness, NREM and REM sleep in neuropathic rats; assay type: in vivo, male Wistar rats; conditions: for REM sleep (total time), relative to NP rats treated with vehicle / total NREM sleep, relative to NP rats treated with vehicle / total time of wakefulness, relative to NP rats treated with vehicle: WAY 100635 2 mg/kg; for block of the hypnotic effects of CBD (20 mg/kg): WAY 100635 2 mg/kg i.p. 10 min before CBD
Procedure: Animals. The experiments were performed on male Wistar rats weighing 250 g (six weeks). All animals were housed in standardized animal facilities under a 12 h light/dark cycle (lights on at 7 AM) with ad libitum access to food and water. All surgeries and experimental procedures were performed during the light cycle. Experimental protocols were approved by the Animal Ethics Committee of the local institutional committee for animal use and care (McGill University, Qc, Canada). These protocols follow ethical guidelines for investigation of experimental pain in conscious animals of the IASP, the Canadian Institute of Health Research guidelines for animal care and scientific use.
Spared nerve injury (SNI). SNI was performed according to the method of Decosterd and Woolf^35. Rats were deeply anaesthetized with isofluorane (5%), anaesthesia was confirmed by the absence of a nociceptive reflex reaction to a paw pinch. The sciatic nerve was exposed at mid-thigh level distal to the trifurcation and freed of connective tissue; the three peripheral branches (sural, common peroneal, and tibial nerves) of the sciatic nerve were exposed without stretching nerve structures. Both tibial and common peroneal nerves were ligated and transected together. Carprofen (5 mg/kg) was administrated subcutaneously pre-surgery as well as three days every 24 hours post-surgery as analgesic. After SNI, each rat was housed in its home cage for 15 days until the neuropathy is developed.
EEG/EMG Implantation. Neuropathic rats (10 days after surgery) and naïve rats were placed in a stereotaxic frame following isoflurane-induced anesthesia (5%). Anaesthesia was confirmed by the absence of a nociceptive reflex reaction to a paw pinch. For EEG monitoring, three stainless-steel epidural electrodes were positioned through 1.5 mm burr holes: one over the parietal cortex on each side, and the third (as a reference) in the right prefrontal cortex. In rats, their respective locations relative to bregma were −2 mm anteroposterior (AP) and −3 mm lateral (L), −7 mm AP and −3 mm L, and −4.5 mm AP and +3 mm L, according to Paxinos and Watson. For EMG monitoring, three flexible stainless-steel wire electrodes, silicon insulation removed at the terminal 3-4 mm, were implanted into the neck muscles (two bilaterally and one in the middle). Wires were fused with the electrodes and the connectors were fixed to the skull with dental acrylic (Coltene/Whaledent). Carprofen (10mg/kg) was administrated subcutaneously pre-surgery as well as three days every 24 hours post-surgically as analgesic. Each rat was single-caged post-surgery and allowed to recover for the next 5 days^13. 24 hours after surgery, the rats were placed in the recording chamber and connected to a flexible 6-flat wire (3M Scotchflex™) in a freely moving manner for several hours during the subsequent 5 days. No recordings were performed, but tolerance to the cable and sleep behavior were observed. All rats from a home cage were also grouped for one hour each day for socialization to circumvent anxious-depressive-like behavior induced by social isolation^13.
Study design for EEG and EMG assessment. […] […] In another cohort of rats rimonabant (1 mg/kg) was also injected i.p. at 6 A.M. in neuropathic rats.
(§1) EEG and EMG recording. Six days after surgery (16 days post-SNI), mechanical allodynia was assessed via von Frey test, and EEG/EMG was recorded for a period of 6 h (from 6 AM to 12 PM). The treatments (described below) were performed at 6:00 A.M., right after the recording had started. […] Consecutive 10 s epochs were subjected to a fast Fourier transform (FFT), and EEG power spectra density was computed in the frequency range of 0-64 Hz^13.
Analysis of EEG and EMG data. The three classical vigilance states as described in the rat were discriminated on the basis of the cortical EEG and neck EMG activities. […]

rats = conditions: rat, in vivo; cited from earlier work
neuropathic rats [2] = test: EEG power spectra (delta, theta, sigma bands) during NREM and REM sleep; assay type: in vivo, male Wistar rats
Procedure: as §1
To determine the variations in power spectra induced by the pharmacological treatment of CBD and antagonists, the power densities were summed up over the frequency band of 0-25 Hz (total power). The data were then standardized by expressing all power spectral densities at the different 0.5 Hz bin frequency ranges (delta, theta, and sigma) as a percentage relative to the total power of the same epoch^16. Frequency ranges were 0-3.5Hz for delta, 4-8.5Hz for theta, and 11-14 Hz for sigma bands. The sum of power densities over a frequency band following treatments were expressed as the percentage difference from that in or naïve+veh or NP+vehicle group in statistical analysis. In the experiments with WAY 100635 the NP+CBD was compared with NP+vehicle, NP+WAY, NP+WAY+CBD.
To assess whether CBD (20 mg/kg) might affect the microarchitecture during the sleep, the intensity Delta (0.5-4 Hz), Theta ([…]) and Sigma (10-15 Hz) waves were measured during 6 hours of light phase in the 3 groups of rats (Naïve, SNI+VEH and SNI+CBD 20mg/kg). Data were converted as a percentage of variation vs. naive animals and One-way ANOVA was performed on the power of delta, theta and sigma waves during NREM and REN sleep.
To assess whether the 5-HT1A selective antagonist WAY 100635 (2 mg/kg) might reverse the effect of CBD (20 mg/kg) in the enhancement of power density (Delta, Theta, and Sigma waves) during sleep, the power spectra were measured for 6 hours in four groups of rats. The first group were NP rats treated with CBD vehicle (n=8), the second group were NP rats treated with WAY 100635 alone at 2 mg/kg (n=6), the third group were NP rats treated with WAY 100635 (2 mg/kg)+CBD (20 mg/kg; n=6), and the fourth group were NP treated with CBD at 20 mg/kg (n=8). Data were converted as a percentage of variation vs NP animals treated with vehicle.

[3] = 6 h EEG/EMG, i.p., CBD 20 mg/kg, rimonabant 1 mg/kg
[4] = NP rats, 6 h EEG/EMG, i.p., CBD 20 mg/kg, rimonabant 1 mg/kg
[5] = 6 h EEG/EMG, i.p., CBD 20 mg/kg
[6] = 6 h EEG/EMG, i.p., CBD 20 mg/kg, listed as WAY

## Cc1c(C(=O)NN2CCCCC2)nn(-c2ccc(Cl)cc2Cl)c1-c1ccc(Cl)cc1 [Rimonabant]
Neuropathic rats [1]; [3]
  REM sleep (total time), relative to NP rats treated with vehicle: Decrease the Time Spent in REM; also recorded: difference
Neuropathic rats [1]; 6 h EEG/EMG, i.p., CBD 20 mg/kg, rimonabant 1 mg/kg, listed as rimonabant
  REM sleep (total time), relative to NP rats treated with vehicle: reduction of REM sleep time; also recorded: decreases REM sleep
Neuropathic rats [1]; [4]
  REM sleep, relative to naïve animals treated with vehicle: difference
  wakefulness, relative to naïve animals treated with vehicle: difference
Neuropathic rats [1]; NP rats, i.p., CBD 20 mg/kg, rimonabant 1 mg/kg
  reversal of sleep perturbations induced by neuropathic pain (sleep-wake cycle): Does not Reverse the Sleep Perturbations
rats
  time spent in NREM sleep: reducing the time spent in NREM sleep and REM sleep
  time spent in REM sleep: reducing the time spent in NREM sleep and REM sleep
  time spent in wakefulness: dose-dependently increased the time spent in wakefulness

## COc1ccccc1N1CCN(CCN(C(=O)C2CCCCC2)c2ccccn2)CC1 [WAY 100635]
Neuropathic rats [2]; NP rats, 6 h, CBD 20 mg/kg, WAY 100635 2 mg/kg
  power of Delta waves during REM sleep, between groups (ANOVA): no statistically significant differences between groups
Neuropathic rats [2]; NP rats, WAY 100635 2 mg/kg, p<0.0003
  block of the theta power increase induced by CBD (20 mg/kg) on NREM sleep: able to block the theta power increase induced by CBD
Neuropathic rats [2]; NP rats, WAY 100635 2 mg/kg, p<0.0019
  block of the effects of CBD (20 mg/kg) on Sigma power during REM sleep: blocks the effects of CBD
Neuropathic rats [2]; NP rats, WAY 100635 2 mg/kg, p<0.0048
  block of the Delta power increase induced by CBD (20 mg/kg) on NREM sleep: able to block the Delta power increase induced by CBD
Neuropathic rats [2]; NP rats, WAY 100635 2 mg/kg, p<0.0061
  block of the positive effect of CBD (20 mg/kg) on theta waves during REM sleep: able to block the positive effect of CBD
Neuropathic rats [2]; WAY 100635 2 mg/kg alone (p<0.038) or WAY 100635+CBD (p<0.0006)
  intensity of Sigma waves during NREM sleep, relative to NP animals administered CBD 20 mg/kg: differences were detected
Neuropathic rats [1]; 6 h EEG/EMG, WAY 100635 alone i.p.
  REM sleep, compared to NP rats treated with CBD 20 mg/kg: decrease in REM sleep
Neuropathic rats [1]; [5]
  total NREM sleep, relative to NP rats treated with vehicle: statistically reduced the time spent NREM sleep
  total time of wakefulness, relative to NP rats treated with vehicle: increase in wakefulness
Neuropathic rats [1]; [6]
  total NREM sleep, relative to NP rats treated with vehicle: impaired NREM sleep
  total time of wakefulness, relative to NP rats treated with vehicle: increased wakefulness
Neuropathic rats [1]; [3]
  REM sleep (total time), relative to NP rats treated with vehicle: no statistical difference was detected
Neuropathic rats [1]; 6 h EEG/EMG, i.p., WAY 100635 2 mg/kg alone or 10 min before CBD 20 mg/kg
  total time of wakefulness, relative to NP rats treated with CBD 20 mg/kg: increase in wakefulness
Neuropathic rats [1]; NP rats, 6 h EEG/EMG, WAY 100635 (1 mg/kg) as printed, before CBD, p<0.001
  block of the positive effect of CBD (20 mg/kg) on REM sleep: able to block the positive effect of CBD
Neuropathic rats [1]; NP rats
  block of the hypnotic effects of CBD (20 mg/kg): fully prevented
Neuropathic rats [1]; NP rats, listed as WAY100635
  block of the hypnotic effects of CBD (20 mg/kg): Blocks the Hypnotic Effects of CBD
